The results in this text go back to patent US8217066B2, “Compounds as lysophosphatidic acid receptor antagonists” (Amira Pharmaceuticals, Inc., priority 2009, dated 2012).

The experiment addresses T1, human LPA1 (Homo sapiens, UniProt Q92633).
T1 construct: the full-length cDNA for human LPA1 was obtained by PCR of the reverse transcription reaction; expressed in transfected cells
Put plainly: LPA1 calcium flux assay (HLPA1 Ca Flux). Format: cell-based. The conditions noted are these: CHO cells stably expressing human LPA1, stimulated with 10 nM LPA. As to the method: A 1.1 kb cDNA encoding the human LPA1 receptor was cloned from human lung. Human lung RNA (Clontech Laboratories, Inc. USA) was reverse transcribed using the RETROscript kit (Ambion, Inc.) and the full-length cDNA for human LPA1 was obtained by PCR of the reverse transcription reaction. The nucleotide sequence of the cloned human LPA1 was determined by sequencing and confirmed to be identical to the published human LPA1 sequence (An et al. Biochem. Biophys. Res. Commun. 231:619 (1997). The cDNA was cloned into the pcDNA5/FRT expression plasmid and transfected in CHO cells using lipofectamine 2000 (Invitrogen Corp., USA). Clones stably expressing human LPA1 were selected using hygromycin and identified as cells that show Ca-influx in response to LPA.
Human LPA1 or LPA3 expressing CHO cells are seeded at 20,000-45,000 cells per well in a 96-well poly-D-lysine coated plate one or two days before the assay. Prior to the assay, the cells are washed once with PBS and then cultured in serum-free media overnight. On the day of the assay, a calcium indicator dye (Calcium 4, Molecular Devices) in assay buffer (HBSS with Ca^2+ and Mg^2+ and containing 20 mM Hepes and 0.3% fatty-acid free human serum albumin) is added to each well and incubation continued for 1 hour at 37° C. […] of test compounds in 2.5% DMSO are added to the cells and incubation continued at room temperature for 30 minutes. Cells are the stimulated by the addition of 10 nM LPA and intracellular Ca^2+ measured using the Flexstation 3 (Molecular Devices). IC50s are determined using Graphpad prism analysis of drug titration curves.
Background: A change in cytosolic calcium serves as a functional read-out for many receptors and channels.

Some results are limits rather than exact numbers.

T1 sequence (Q92633 whole entry): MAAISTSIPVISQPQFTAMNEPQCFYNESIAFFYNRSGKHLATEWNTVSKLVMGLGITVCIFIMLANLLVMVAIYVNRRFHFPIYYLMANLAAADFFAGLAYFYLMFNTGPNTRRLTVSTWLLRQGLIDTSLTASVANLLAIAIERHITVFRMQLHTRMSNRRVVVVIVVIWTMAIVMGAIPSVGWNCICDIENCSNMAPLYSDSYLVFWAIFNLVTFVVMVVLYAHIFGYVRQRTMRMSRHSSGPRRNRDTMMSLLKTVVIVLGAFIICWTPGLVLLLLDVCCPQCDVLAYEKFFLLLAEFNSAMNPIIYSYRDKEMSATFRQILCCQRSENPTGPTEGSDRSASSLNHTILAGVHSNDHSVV

As a reminder, the IC50 is the concentration at which inhibition is half-maximal. For `Cc1noc(-c2ccc(-c3ccc(C4(C(=O)O)CC4)cc3)cc2)c1C(O)CCCc1ccccc1C(F)(F)F` (stereo not drawn) [Compound 40, 1-(4′-{4-[1-Hydroxy-4-(2-trifluoromethyl-phenyl)-butyl]-3-methyl-isoxazol-5-yl}-biphenyl-4-yl)-cyclopropanecarboxylic acid], the 50% inhibitory concentration (IC50) was below 300 nM.
In the case of `Cc1ccc(S(=O)(=O)NC(=O)C2(c3ccc(-c4ccc(-c5onc(C)c5C(O)CCCc5ccccc5)cc4)cc3)CC2)cc1` (stereo not drawn) [Compound 78, N-(1-{4′-[4-(1-Hydroxy-4-phenyl-butyl)-3-methyl-isoxazol-5-yl]-biphenyl-4-yl}-cyclopropanecarbonyl)-4-methyl-benzenesulfonamide] it was below 300 nM.
In the case of `Cc1noc(-c2ccc(-c3ccc(C4(C(=O)O)CC4)cc3)cc2)c1C(O)CNCc1ccccc1` (stereo not drawn) [Compound 29, 1-{4′-[4-(2-Benzylamino-1-hydroxy-ethyl)-3-methyl-isoxazol-5-yl]-biphenyl-4-yl}-cyclopropanecarboxylic acid] it was below 300 nM; in that of `Cc1noc(-c2ccc(-c3ccc(C4(C(=O)O)CC4)cc3)cc2)c1COCC(C)c1ccccc1` (stereo not drawn) [Compound 11, 1-{4′-[3-Methyl-4-(2-phenyl-propoxymethyl)-isoxazol-5-yl]-biphenyl-4-yl}-cyclopropanecarboxylic acid], below 300 nM.
In the case of `Cc1noc(-c2ccc(-c3ccc(C4(C(=O)O)CC4)cc3)cc2)c1C(O)CCc1ccccc1` (stereo not drawn) [Compound 34, 1-{4′-[4-(1-Hydroxy-3-phenyl-propyl)-3-methyl-isoxazol-5-yl]-biphenyl-4-yl}-cyclopropanecarboxylic acid] it was below 300 nM.
In the case of `Cc1noc(-c2ccc(-c3ccc(C4(C(=O)O)CC4)cc3)cc2)c1CCC(O)Cc1ccccc1` (stereo not drawn) [Compound 23, 1-{4′-[4-(3-Hydroxy-4-phenyl-butyl)-3-methyl-isoxazol-5-yl]-biphenyl-4-yl}-cyclopropanecarboxylic acid], the IC50 was 300 to 1000 nM.
In the case of `Cc1noc(-c2ccc(-c3ccc(C4(C(=O)O)CC4)cc3)cc2)c1C(O)COCCc1ccccc1` (stereo not drawn) [Compound 59, 1-{4′-[4-(1-Hydroxy-2-phenethyloxy-ethyl)-3-methyl-isoxazol-5-yl]-biphenyl-4-yl}-cyclopropanecarboxylic acid] it was below 300 nM.
Take `Cc1noc(-c2ccc(-c3ccc(C4(C(=O)O)CC4)cc3)cc2)c1C(O)CCc1cccc(C(F)(F)F)c1` (stereo not drawn) [Compound 35, 1-(4′-{4-[1-Hydroxy-3-(3-trifluoromethyl-phenyl)-propyl]-3-methyl-isoxazol-5-yl}-biphenyl-4-yl)-cyclopropanecarboxylic acid]: the IC50 is below 300 nM.
In the case of `Cc1noc(-c2ccc(-c3ccc(C4(C(=O)O)CC4)cc3)cc2)c1NC(C)CCc1c(F)cccc1Cl` (stereo not drawn) [Compound 55, 1-(4′-{4-[3-(2-Chloro-6-fluoro-phenyl)-1-methyl-propylamino]-3-methyl-isoxazol-5-yl}-biphenyl-4-yl)-cyclopropanecarboxylic acid] it was below 300 nM; in that of `Cc1noc(-c2ccc(-c3ccc(C4(C(=O)O)CC4)cc3)cc2)c1NC(C)CCc1cccc(C(F)(F)F)c1` (stereo not drawn) [Compound 31, 1-(4′-{3-Methyl-4-[1-methyl-3-(3-trifluoromethyl-phenyl)-propylamino]-isoxazol-5-yl}-biphenyl-4-yl)-cyclopropanecarboxylic acid], below 300 nM.
With `Cc1noc(-c2ccc(-c3ccc(C4(C(=O)O)CC4)cc3)cc2)c1COCC(C)(O)c1ccccc1` (stereo not drawn) [Compound 19, 1-{4′-[4-(2-hydroxy-2-phenyl-propoxymethyl)-3-methyl-isoxazol-5-yl]-biphenyl-4-yl}-cyclopropanecarboxylic acid], the IC50 was in the range of 1000 to 50000 nM.
As for `Cc1noc(-c2ccc(-c3ccc(C4(C(=O)O)CC4)cc3)cc2)c1C(O)CCCc1ccc(C(F)(F)F)cc1` (stereo not drawn) [Compound 39, 1-(4′-{4-[1-Hydroxy-4-(4-trifluoromethyl-phenyl)-butyl]-3-methyl-isoxazol-5-yl}-biphenyl-4-yl)-cyclopropanecarboxylic acid], the half-maximal inhibitory concentration (IC50) is below 300 nM.
